# Literature values in patent publication US8183203B2, “Methods for treating pulmonary hypertension and compositions comprising vasoactive intestinal peptide” (Avant Garde Therapeutics & Technologies LLC, priority 1999, dated 2012).
# Assays:
# [1] = test system: dogs left in ventricular fibrillation; settings: four dogs, ventricular fibrillation for seven minutes, 4 μg/kg IV bolus, then defibrillated
# Na+ channels = settings: isolated rabbit ventricular myocytes, acute
SMILES,dogs successfully resuscitated [1],time to peak action (onset of inotropic action) (isolated rat hearts) [s],maximum dp/dt (contractility) after a bolus injection (isolated rat hearts),burst mode gating of Na+ channels (Na+ channels)
"N[C@@H](Cc1cc(I)c(Oc2ccc(O)c(I)c2)c(I)c1)C(=O)O [T3, 3,5,3′ triiodothyronine]",Three out of four,15,rapidly and significantly increased,acutely increased
CC(C)NCC(O)c1ccc(O)c(O)c1 (stereo not drawn) [isoproterenol],–,60,also increased,–
